From ChEMBL document CHEMBL2150930, “Design, synthesis and pharmacological evaluation of novel tacrine-caffeic acid hybrids as multi-targeted compounds against Alzheimer's disease” (Bioorg Med Chem Lett, 2012) come the findings set out here.

For one series, the target named is Acetylcholinesterase (Electrophorus electricus, UniProt O42275). Put plainly: Inhibition of electric eel AChE using […] as substrate preincubated for 20 mins by Ellman's method.
Another series addresses Cholinesterase (Equus caballus, UniProt P81908).
For series [1], the system named is Radical scavenging activity.
Description: Antioxidant activity of the compound assessed as DPPH radical scavenging activity after 60 mins
The test system of series [2] is HT-22. Briefly: Cytotoxicity against mouse HT22 cells assessed as cell viability at 30 uM after 24 hrs by MTT assay. The class given is cell-based. The note with it: ht-22, 24 h.
The subject of series [3] is HT-22. Put plainly: Cytotoxicity against mouse HT22 cells at 100 uM after 30 mins by LDH release assay. The class given is cell-based. The note with it: ht-22, 0.5 h.
The subject of series [4] is HT-22. Put plainly: Neuroprotective activity in mouse HT22 cells assessed as protection against H2O2-induced cell death at 3 to 30 uM preincubated for 30 mins prior to H2O2 challenge measured after 24 hrs by MTT assay. The class given is functional, cell-based.
Series [5] in a line: Antioxidant activity against Cu2+-mediated ROS formation in HEPES buffer at pH 7.4 assessed as compound-Cu2+ complex formation at 40 uM after 5 mins by UV-vis spectrophotometric analysis. The class given is functional.
In series [6] the target is Acetylcholinesterase (Electrophorus electricus) (UniProt O42275). Put plainly: Mixed type inhibition of electric eel AChE using […] as substrate by Lineweaver-Burk plot analysis.
Acetylcholinesterase (Electrophorus electricus), sequence (O42275 24-633 limits assumed): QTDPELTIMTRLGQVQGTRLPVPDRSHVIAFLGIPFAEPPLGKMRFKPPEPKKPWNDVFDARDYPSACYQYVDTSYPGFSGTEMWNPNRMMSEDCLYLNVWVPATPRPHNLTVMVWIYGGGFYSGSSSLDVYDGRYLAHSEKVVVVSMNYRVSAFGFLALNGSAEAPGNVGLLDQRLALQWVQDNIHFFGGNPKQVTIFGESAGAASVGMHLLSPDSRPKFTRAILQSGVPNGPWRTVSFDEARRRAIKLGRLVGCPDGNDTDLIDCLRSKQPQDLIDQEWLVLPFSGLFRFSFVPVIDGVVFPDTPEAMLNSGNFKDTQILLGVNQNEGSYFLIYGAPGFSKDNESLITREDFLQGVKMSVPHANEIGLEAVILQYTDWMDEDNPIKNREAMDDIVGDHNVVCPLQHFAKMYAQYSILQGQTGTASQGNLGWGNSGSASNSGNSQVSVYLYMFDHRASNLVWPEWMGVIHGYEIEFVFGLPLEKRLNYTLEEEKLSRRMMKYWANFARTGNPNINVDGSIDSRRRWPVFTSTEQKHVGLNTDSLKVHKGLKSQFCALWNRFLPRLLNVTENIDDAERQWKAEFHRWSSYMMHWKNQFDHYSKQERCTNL
Series [7] concerns HT-22. Put plainly: […] against mouse HT22 cells at 100 uM after 30 mins by LDH release assay. The class given is cell-based. The following applies: ht-22, 0.5 h.

Calls of active or inactive are those of the source. No cut-off for these calls is given here.

Acetylcholinesterase, sequence (O42275 whole entry): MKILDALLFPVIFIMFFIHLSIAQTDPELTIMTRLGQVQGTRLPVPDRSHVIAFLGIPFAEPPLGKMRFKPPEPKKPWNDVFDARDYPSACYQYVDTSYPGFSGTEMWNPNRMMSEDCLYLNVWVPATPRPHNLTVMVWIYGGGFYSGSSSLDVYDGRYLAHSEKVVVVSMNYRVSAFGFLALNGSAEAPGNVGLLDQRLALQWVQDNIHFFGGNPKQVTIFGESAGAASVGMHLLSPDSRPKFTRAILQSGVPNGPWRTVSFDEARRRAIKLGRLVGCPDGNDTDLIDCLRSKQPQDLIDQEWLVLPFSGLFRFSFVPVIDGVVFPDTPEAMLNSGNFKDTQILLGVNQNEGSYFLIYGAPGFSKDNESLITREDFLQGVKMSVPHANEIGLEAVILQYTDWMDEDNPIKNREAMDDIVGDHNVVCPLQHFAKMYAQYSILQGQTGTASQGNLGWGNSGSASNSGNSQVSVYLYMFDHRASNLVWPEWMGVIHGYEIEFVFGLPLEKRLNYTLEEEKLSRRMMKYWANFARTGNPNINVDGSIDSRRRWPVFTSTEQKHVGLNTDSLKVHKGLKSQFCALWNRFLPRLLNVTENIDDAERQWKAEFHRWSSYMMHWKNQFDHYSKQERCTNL
Cholinesterase, sequence (P81908 whole entry): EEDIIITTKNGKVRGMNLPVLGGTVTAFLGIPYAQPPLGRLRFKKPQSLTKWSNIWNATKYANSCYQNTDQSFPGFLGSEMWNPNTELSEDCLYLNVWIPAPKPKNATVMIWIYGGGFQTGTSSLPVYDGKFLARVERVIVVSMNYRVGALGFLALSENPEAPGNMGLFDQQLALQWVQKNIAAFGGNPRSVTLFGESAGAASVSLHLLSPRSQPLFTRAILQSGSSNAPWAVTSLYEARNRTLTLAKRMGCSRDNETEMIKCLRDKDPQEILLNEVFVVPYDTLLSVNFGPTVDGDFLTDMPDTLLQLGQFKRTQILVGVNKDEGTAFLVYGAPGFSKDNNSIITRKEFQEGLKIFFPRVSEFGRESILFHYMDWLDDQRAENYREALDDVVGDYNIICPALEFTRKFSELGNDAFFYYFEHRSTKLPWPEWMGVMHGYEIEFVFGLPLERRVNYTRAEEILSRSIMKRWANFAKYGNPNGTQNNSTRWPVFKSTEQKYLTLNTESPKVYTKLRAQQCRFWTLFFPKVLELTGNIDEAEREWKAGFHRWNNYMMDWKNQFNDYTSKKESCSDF

In the case of `O=C(/C=C/c1ccc(O)c(O)c1)NCCNc1c2c(nc3ccccc13)CCCC2`, the IC50 is 1.8 µM on Acetylcholinesterase, 2.3 µM against Cholinesterase and 14.1 µM in series [1].
As to `O=C(/C=C/c1ccc(O)c(O)c1)NCCCCCCNc1c2c(nc3ccccc13)CCCC2`, the half-maximal inhibitory concentration (IC50) on Acetylcholinesterase came to 1.9 µM; at Cholinesterase it was 3.9 µM; in series [1], 10.4 µM.
For `O=C(/C=C/c1ccc(O)c(O)c1)NCCCCCCNc1c2c(nc3cc(Cl)ccc13)CCCC2`, the Activity result is “Toxic” in the series with HT-22 [2] and “Non-toxic” in the series on HT-22 [3]. In addition, the result in the series with HT-22 [4] was Active. The half-maximal inhibitory concentration (IC50) against Acetylcholinesterase worked out at 6.3 µM; against Cholinesterase it was 3.8 µM; in series [1], 4.7 µM.
`O=C(/C=C/c1ccc(O)c(O)c1)NCCNc1c2c(nc3cc(Cl)ccc13)CCCC2`: the outcome in the series on HT-22 [4] was Active. Besides, the half-maximal inhibitory concentration (IC50) against Acetylcholinesterase was 1 µM; against Cholinesterase, 5.5 µM; in series [1], 9.7 µM.
On to `O=C(/C=C/c1ccc(O)c(O)c1)NCCCNc1c2c(nc3ccccc13)CCCC2`, for which the half-maximal inhibitory concentration (IC50) at Acetylcholinesterase came out at 0.0088 µM; against Cholinesterase it was 0.0837 µM; in [1], 11.1 µM.
For `O=C(/C=C/c1ccc(O)c(O)c1)NCCCNc1c2c(nc3cc(Cl)ccc13)CCCC2`, the figures for the Activity entry with HT-22 [2], in the series with HT-22 [3] and in the series with HT-22 [7] were “Toxic”, “Non-toxic” and “Toxic”, respectively. In addition, the result (in the series with HT-22 [4]; in [5]) was Active. The half-maximal inhibitory concentration (IC50) against Acetylcholinesterase turned out to be 0.3 µM; against Cholinesterase it was 29.5 µM; in series [1], 4.8 µM. The inhibition entry in [6] was “Active”.
